Assay results taken from patent publication US8192962B2, “Processes for detecting toxic substances” (Daikin Industries, Ltd., priority 2001, dated 2012).

System: Detoxification protein genes
Test: DNA chip mRNA expression in yeast, detoxification protein genes (Table 8)
Type: cell-based, Saccharomyces cerevisiae S288C
In short: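 Measured as treated-to-untreated fluorescence ratio on a full-genome yeast DNA chip. Cells (S288C, YPD, 25° C.) were exposed in log phase for two hours to one chemical, dosed to curb growth without killing.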

## S=C([S-])NCCNC(=S)[S-].[Zn+2] [(11), zinc N,N′-ethylenebis(dithiocarbamate)]
Yeast gene YBR244W
  The level of expressed mRNA in the presence of chemical substance/The level of expressed mRNA in the absence of chemical substance: 1.5
Yeast gene YBR293W
  The level of expressed mRNA in the presence of chemical substance/The level of expressed mRNA in the absence of chemical substance: 1.1
Yeast gene YCL035C
  The level of expressed mRNA in the presence of chemical substance/The level of expressed mRNA in the absence of chemical substance: 2.1
Yeast gene YCL069W
  The level of expressed mRNA in the presence of chemical substance/The level of expressed mRNA in the absence of chemical substance: 1.0
Yeast gene YCR083W
  The level of expressed mRNA in the presence of chemical substance/The level of expressed mRNA in the absence of chemical substance: 1.8
Yeast gene YDL100C
  The level of expressed mRNA in the presence of chemical substance/The level of expressed mRNA in the absence of chemical substance: 2.8
Yeast gene YDL168W
  The level of expressed mRNA in the presence of chemical substance/The level of expressed mRNA in the absence of chemical substance: 1.9
Yeast gene YDR256C
  The level of expressed mRNA in the presence of chemical substance/The level of expressed mRNA in the absence of chemical substance: 1.4
Yeast gene YDR453C
  The level of expressed mRNA in the presence of chemical substance/The level of expressed mRNA in the absence of chemical substance: 2.3
Yeast gene YDR513W
  The level of expressed mRNA in the presence of chemical substance/The level of expressed mRNA in the absence of chemical substance: 2.0
Yeast gene YDR538W
  The level of expressed mRNA in the presence of chemical substance/The level of expressed mRNA in the absence of chemical substance: 0.9
Yeast gene YEL027W
  The level of expressed mRNA in the presence of chemical substance/The level of expressed mRNA in the absence of chemical substance: 0.9
Yeast gene YEL065W
  The level of expressed mRNA in the presence of chemical substance/The level of expressed mRNA in the absence of chemical substance: 0.6
Yeast gene YER185W
  The level of expressed mRNA in the presence of chemical substance/The level of expressed mRNA in the absence of chemical substance: 1.6
Yeast gene YFL050C
  The level of expressed mRNA in the presence of chemical substance/The level of expressed mRNA in the absence of chemical substance: 1.2
Yeast gene YGL013C
  The level of expressed mRNA in the presence of chemical substance/The level of expressed mRNA in the absence of chemical substance: 0.9
Yeast gene YGL254W
  The level of expressed mRNA in the presence of chemical substance/The level of expressed mRNA in the absence of chemical substance: 1.1
Yeast gene YGR088W
  The level of expressed mRNA in the presence of chemical substance/The level of expressed mRNA in the absence of chemical substance: 3.9
Yeast gene YGR138C
  The level of expressed mRNA in the presence of chemical substance/The level of expressed mRNA in the absence of chemical substance: 0.7
Yeast gene YGR197C
  The level of expressed mRNA in the presence of chemical substance/The level of expressed mRNA in the absence of chemical substance: 1.1
Yeast gene YGR209C
  The level of expressed mRNA in the presence of chemical substance/The level of expressed mRNA in the absence of chemical substance: 3.1
Yeast gene YGR224W
  The level of expressed mRNA in the presence of chemical substance/The level of expressed mRNA in the absence of chemical substance: 0.8
Yeast gene YHL040C
  The level of expressed mRNA in the presence of chemical substance/The level of expressed mRNA in the absence of chemical substance: 1.7
Yeast gene YHL047C
  The level of expressed mRNA in the presence of chemical substance/The level of expressed mRNA in the absence of chemical substance: 1.0
Yeast gene YHR008C
  The level of expressed mRNA in the presence of chemical substance/The level of expressed mRNA in the absence of chemical substance: 2.1
Yeast gene YHR048W
  The level of expressed mRNA in the presence of chemical substance/The level of expressed mRNA in the absence of chemical substance: 2.0
Yeast gene YHR053C
  The level of expressed mRNA in the presence of chemical substance/The level of expressed mRNA in the absence of chemical substance: 1.4
Yeast gene YHR055C
  The level of expressed mRNA in the presence of chemical substance/The level of expressed mRNA in the absence of chemical substance: 1.8
Yeast gene YIR002C
  The level of expressed mRNA in the presence of chemical substance/The level of expressed mRNA in the absence of chemical substance: 0.8
Yeast gene YIR038C
  The level of expressed mRNA in the presence of chemical substance/The level of expressed mRNA in the absence of chemical substance: 3.4
Yeast gene YJL101C
  The level of expressed mRNA in the presence of chemical substance/The level of expressed mRNA in the absence of chemical substance: 2.7
Yeast gene YJR104C
  The level of expressed mRNA in the presence of chemical substance/The level of expressed mRNA in the absence of chemical substance: 2.6
Yeast gene YKL026C
  The level of expressed mRNA in the presence of chemical substance/The level of expressed mRNA in the absence of chemical substance: 3.0
Yeast gene YKL064W
  The level of expressed mRNA in the presence of chemical substance/The level of expressed mRNA in the absence of chemical substance: 0.7
Yeast gene YKR066C
  The level of expressed mRNA in the presence of chemical substance/The level of expressed mRNA in the absence of chemical substance: 1.3
Yeast gene YKR105C
  The level of expressed mRNA in the presence of chemical substance/The level of expressed mRNA in the absence of chemical substance: 0.0
Yeast gene YKR106W
  The level of expressed mRNA in the presence of chemical substance/The level of expressed mRNA in the absence of chemical substance: 1.8
Yeast gene YLL028W
  The level of expressed mRNA in the presence of chemical substance/The level of expressed mRNA in the absence of chemical substance: 0.7
Yeast gene YLL057C
  The level of expressed mRNA in the presence of chemical substance/The level of expressed mRNA in the absence of chemical substance: 1.3
Yeast gene YLL060C
  The level of expressed mRNA in the presence of chemical substance/The level of expressed mRNA in the absence of chemical substance: 14.1
Yeast gene YLR043C
  The level of expressed mRNA in the presence of chemical substance/The level of expressed mRNA in the absence of chemical substance: 1.4
Yeast gene YLR046C
  The level of expressed mRNA in the presence of chemical substance/The level of expressed mRNA in the absence of chemical substance: 0.9
Yeast gene YML028W
  The level of expressed mRNA in the presence of chemical substance/The level of expressed mRNA in the absence of chemical substance: 1.0
Yeast gene YML116W
  The level of expressed mRNA in the presence of chemical substance/The level of expressed mRNA in the absence of chemical substance: 4.3
Yeast gene YMR015C
  The level of expressed mRNA in the presence of chemical substance/The level of expressed mRNA in the absence of chemical substance: 1.0
Yeast gene YMR038C
  The level of expressed mRNA in the presence of chemical substance/The level of expressed mRNA in the absence of chemical substance: 2.7
Yeast gene YNL239W
  The level of expressed mRNA in the presence of chemical substance/The level of expressed mRNA in the absence of chemical substance: 1.9
Yeast gene YNL241C
  The level of expressed mRNA in the presence of chemical substance/The level of expressed mRNA in the absence of chemical substance: 3.0
Yeast gene YNL259C
  The level of expressed mRNA in the presence of chemical substance/The level of expressed mRNA in the absence of chemical substance: 1.6
Yeast gene YOL158C
  The level of expressed mRNA in the presence of chemical substance/The level of expressed mRNA in the absence of chemical substance: 0.7
Yeast gene YOR031W
  The level of expressed mRNA in the presence of chemical substance/The level of expressed mRNA in the absence of chemical substance: 1.2
Yeast gene YOR153W
  The level of expressed mRNA in the presence of chemical substance/The level of expressed mRNA in the absence of chemical substance: 1.0
Yeast gene YOR247W
  The level of expressed mRNA in the presence of chemical substance/The level of expressed mRNA in the absence of chemical substance: 2.9
Yeast gene YOR251C
  The level of expressed mRNA in the presence of chemical substance/The level of expressed mRNA in the absence of chemical substance: 1.0
Yeast gene YOR273C
  The level of expressed mRNA in the presence of chemical substance/The level of expressed mRNA in the absence of chemical substance: 1.5
Yeast gene YPL163C
  The level of expressed mRNA in the presence of chemical substance/The level of expressed mRNA in the absence of chemical substance: 0.5
Yeast gene YPR200C
  The level of expressed mRNA in the presence of chemical substance/The level of expressed mRNA in the absence of chemical substance: 2.0
